Data: US11352396B2, “Antimicrobial peptides and methods of using same” (Zoetis Services LLC, priority 2017, dated 2022)
Residues, ends and D or L forms follow the SMILES beside them.

Assays:
cRBC = format: cell-based, canine
Summary of the method: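 Washed, plasma-free red cells were incubated with peptide titrated from 50 µM to 0.05 µM for 1 h at 37 °C. Hemolysis was read as OD at 405 nm, scaled between phosphate buffer alone (0%) and 1% Triton X-100 (100%).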

S. aureus ATCC 29213 = format: cell-based; parameters: key to SA 29213: MIC in μM (lowest conc. with no visible growth); conditions: S. aureus 29213, Table 6
Summary of the method: (§1)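 Broth microdilution followed CLSI VET01-S2, with peptides serially diluted to in-assay concentrations of 50 μM to 0.05 μM. A 0.5 McFarland inoculum diluted 1:250 in Mueller-Hinton Broth was incubated with peptide for 18-20 hours. MIC was read visually as the first well without visible growth.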

E. coli ATCC 25922 = format: cell-based; conditions: E. coli 25922, Table 6
Summary of the method: as §1

[1] = system: Canine-derived epithelial keratinocyte (CPEK) cells; format: cell-based
Summary of the method: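 CPEK cells were dosed with peptides at 50 μM to 0.05 μM and incubated overnight at 37 °C, 5% CO2. Viability was read by CellTiter-Glo luminescence. Percent effect was normalised to 0.1% Triton X-100 (high) and phosphate buffer alone (zero).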

[2] = system: MRSP (Methicillin-Resistant Staphylococcus pseudintermedius); assay: MIC against selected strains of MRSP; format: cell-based; parameters: key to MIC MRSP 72192 / MIC MRSP 76923 / MR 71994 / Mr 88493 / MR 72035 / MR 72192 / MR 76923 / MR 79882 / MR 80279 / MR 81926 / MR 86002 / MR 87665: MIC in μM (visual, first well with no growth); conditions: for MR 71994: MRSP strain 71994, Table 6; for MR 72035: MRSP strain 72035, Table 6; for MR 72192: MRSP strain 72192, Table 6; for MR 76923: MRSP strain 76923, Table 6; for MR 79882: MRSP strain 79882, Table 6; for MR 80279: MRSP strain 80279, Table 6; for MR 81926: MRSP strain 81926, Table 6; for MR 86002: MRSP strain 86002, Table 6; for MR 87665: MRSP strain 87665, Table 6; for Mr 88493: MRSP strain 88493, Table 6
Summary of the method: (§2)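 Broth microdilution MIC following CLSI VET01-S2: peptides titrated 50 μM to 0.05 μM in assay, inoculum a 0.5 McFarland suspension diluted 1:250 in Mueller-Hinton broth. Incubated overnight (18–20 h); MIC taken visually as lowest concentration without visible growth.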

[3] = system: MSSP (Methicillin-Susceptible Staphylococcus pseudintermedius); assay: MIC against selected strains of MSSP; format: cell-based; parameters: MIC MSSP 49051 / MIC MSSP 81923 / MIC MSSP 84250 / Effect on MSSP 86000 / Effect on MSSP 72036 / Effect on MSSP 78032: unit not given beside the values; Effect on MSSP 71990 / Effect on MSSP 86001 / Effect on MSSP 72191 / Effect on MSSP 76986 / Effect on MSSP 77378 / Effect on MSSP 81923 / Effect on MSSP 84250 / Effect on MSSP 84658: unit: µM; conditions: for SP 49051: S. pseudintermedius 49051, Table 6; for Effect on MSSP 71990: strain 71990, Table 5; for Effect on MSSP 72036: strain 72036, Table 5; for Effect on MSSP 72191: strain 72191, Table 5; for Effect on MSSP 76986: strain 76986, Table 5; for Effect on MSSP 77378: strain 77378, Table 5; for Effect on MSSP 78032: strain 78032, Table 5; for Effect on MSSP 81923: strain 81923, Table 5; for Effect on MSSP 84250: strain 84250, Table 5; for Effect on MSSP 84658: strain 84658, Table 5; for Effect on MSSP 86000: strain 86000, Table 5; for Effect on MSSP 86001: strain 86001, Table 5
Summary of the method: as §2

mouse red blood cells = assay: Red blood cell hemolysis assay, mouse; format: cell-based; conditions: compared with SEQ ID NO: 13 (tachyplesin)
Procedure: (§3) SEQ ID NO: 1 was selected for further research. Toxicity of SEQ ID NO: 1 to eukaryotic blood cells was compared to that of tachyplesin (SEQ ID NO: 13). A standard, well referenced red blood cell hemolysis assay was employed against multiple species to test the lysis potential of the peptides. Red blood cells (RBCs) were prepared and isolated by several centrifuge and wash steps to remove the plasma fraction. A dose titration (50 μM to 0.05 μM) of test peptides and control peptide melittin were spotted from 50 mM stocks in a 384 well plate. Prepared RBCs were incubated with peptide for one hour at 37° C. Percent hemolysis was measured by optical density at 405 nm and utilizing 1% TritonX100 as hundred percent effect (HPE) and phosphate buffer alone as zero percent effect (ZPE).

human red blood cells = assay: Red blood cell hemolysis assay, human; format: cell-based; conditions: compared with SEQ ID NO: 13 (tachyplesin), FIG. 1
Procedure: as §3

beagle red blood cells = assay: Red blood cell hemolysis assay, beagle; format: cell-based; conditions: compared with SEQ ID NO: 13 (tachyplesin), FIG. 1
Procedure: as §3

bovine red blood cells = assay: Red blood cell hemolysis assay, bovine; format: cell-based; conditions: compared with SEQ ID NO: 13 (tachyplesin)
Procedure: as §3

rat red blood cells = assay: Red blood cell hemolysis assay, rat; format: cell-based; conditions: compared with SEQ ID NO: 13 (tachyplesin), FIG. 1
Procedure: as §3

Compound	cRBC (50 μM) (cRBC)	SA 29213 (S. aureus ATCC 29213)	EC 25922 (E. coli ATCC 25922)	CPEK (50 μM) [1]	MR 71994 [2]	MR 72035 [2]	MR 72192 [2]	MR 76923 [2]	MR 79882 [2]	MR 80279 [2]	MR 81926 [2]	MR 86002 [2]	MR 87665 [2]	Mr 88493 [2]	SP 49051 [3]	Effect on MSSP 71990 [3]	Effect on MSSP 72036 [3]	Effect on MSSP 72191 [3]	Effect on MSSP 76986 [3]	Effect on MSSP 77378 [3]	further results
114 (KWCFRVCYRGICYRRCRR; Artificial Antimicrobial peptide) [compound 114]	97.9	6.2	1.6 µM	11.9	3.1	3.1	3.1	3.1	1.6	1.6	3.1	3.1	3.1	3.1	3.1	1.6	3.1	3.1	1.6	1.6	Effect on MSSP 78032 [3]: 3.1; Effect on MSSP 81923 [3]: 3.1; Effect on MSSP 84250 [3]: 3.1; Effect on MSSP 84658 [3]: 3.1; Effect on MSSP 86000 [3]: 3.1; Effect on MSSP 86001 [3]: 1.6
115 (GWCFRVCYRGICYRRCND; Artificial Antimicrobial peptide) [compound 115]	94.6	3.1	0.8 µM	5.1	1.6	1.6	1.6	1.6	0.8	1.6	1.6	1.6	1.6	1.6	1.6	1.6	1.6	1.6	1.6	0.8	Effect on MSSP 78032 [3]: 1.6; Effect on MSSP 81923 [3]: 1.6; Effect on MSSP 84250 [3]: 1.6; Effect on MSSP 84658 [3]: 1.6; Effect on MSSP 86000 [3]: 1.6; Effect on MSSP 86001 [3]: 1.6
116 (KWCFYVCYRGICYRRCND; Artificial Antimicrobial peptide) [compound 116]	87.0	6.2	0.8 µM	16.0	1.6	1.6	1.6	1.6	1.6	1.6	1.6	3.1	1.6	1.6	1.6	1.6	1.6	1.6	1.6	1.6	Effect on MSSP 78032 [3]: 1.6; Effect on MSSP 81923 [3]: 1.6; Effect on MSSP 84250 [3]: 1.6; Effect on MSSP 84658 [3]: 1.6; Effect on MSSP 86000 [3]: 1.6; Effect on MSSP 86001 [3]: 1.6
117 (GWCFYVCYRGICYRRCRD; Artificial Antimicrobial peptide) [compound 117]	97.8	6.2	0.8 µM	14.7	1.6	1.6	0.8	1.6	0.8	1.6	1.6	0.8	1.6	1.6	1.6	1.6	1.6	1.6	0.8	0.8	Effect on MSSP 78032 [3]: 1.6; Effect on MSSP 81923 [3]: 1.6; Effect on MSSP 84250 [3]: 1.6; Effect on MSSP 84658 [3]: 1.6; Effect on MSSP 86000 [3]: 1.6; Effect on MSSP 86001 [3]: 1.6
CC[C@H](C)[C@H](NC(=O)CNC(=O)[C@H](CCCNC(=N)N)NC(=O)[C@H](Cc1ccc(O)cc1)NC(=O)[C@H](CS)NC(=O)[C@@H](NC(=O)[C@H](CCCNC(=N)N)NC(=O)[C@H](Cc1ccccc1)NC(=O)[C@H](CS)NC(=O)[C@H](Cc1c[nH]c2ccccc12)NC(=O)[C@@H](N)CCCCN)C(C)C)C(=O)N[C@@H](CS)C(=O)N[C@@H](Cc1ccc(O)cc1)C(=O)N[C@@H](CCCNC(=N)N)C(=O)N[C@@H](CCCNC(=N)N)C(=O)N[C@@H](CS)C(=O)N[C@@H](CCCNC(=N)N)C(=O)N[C@@H](CC(=O)O)C(=O)O [SEQ ID NO: 1, KWCFRVCYRGICYRRCRD] (H-KWCFRVCYRGICYRRCRD-OH; N-terminus and C-terminus assumed)	–	–	–	–	–	–	–	–	–	–	–	–	–	–	–	–	–	–	–	–	difference in toxicity versus SEQ ID NO: 13, mouse red blood cells (mouse red blood cells): negligible; times less toxic than SEQ ID NO: 13, human red blood cells (human red blood cells): 2-4 times; times less toxic than SEQ ID NO: 13, beagle red blood cells (beagle red blood cells): 2-4 times; difference in toxicity versus SEQ ID NO: 13, bovine red blood cells (bovine red blood cells): negligible; times less toxic than SEQ ID NO: 13, rat red blood cells (rat red blood cells): 2-4 times
